In assay [1] the test system is Isolated Rat Bladder Strips. As to the kind of experiment: Inhibition of Contractions in Isolated Rat Bladder Strips (15 mM KCl-enhanced contractile activity). On the set-up: species or system Sprague-Dawley rats. The conditions noted are these: for activity at 30 µM: read-out: Percent contraction at 30 μM (C); for inhibition at 30 µM: read-out: Percent inhibition at 30 μM (I). The source says:
The smooth muscle relaxing activity of the compounds of this invention was established in accordance with standard pharmaceutically accepted test procedures with representative compounds as follows:
Sprague-Dawley rats (150-200 g) are rendered unconscious by CO2 asphyxiation and then euthanized by cervical dislocation. The bladder is removed into warm (37 deg.C.) physiological salt solution (PSS) of the following composition (mM): NaCl, 118.4; KCl, 4.7; CaCl2, 2.5; […]; NaHCO3, 24.9; KH2 PO4, 1.2; glucose, 11.1; EDTA, 0.023; gassed with […]; pH 7.4. The bladder is opened and then cut into strips 1-2 mm in width and 7-10 mm in length. The strips are subsequently suspended in a 10 mL tissue bath under an initial resting tension of 1.5 g. The strips are held in place by two surgical clips one of which is attached to a fixed hook while the other is attached to an isometric force transducer. […] The carbachol is then washed out and the tissue allowed to relax to its resting level of activity. Following a further 30 minute period of recovery an additional 15 mM KCl are introduced into the tissue bath. This increase in KCl concentration results in a large increase in the amplitude of spontaneous contractions (and initiation of contractions in previously quiescent strips) superimposed upon a small increase in basal tone. Following stabilization of this enhanced level of contractile activity, incremental increases in the concentration of test compound or vehicle are introduced into the tissue bath. Contractile activity is measured for each compound or vehicle concentration during the last minute of a 30 minute challenge.
The isometric force developed by the bladder strips is measured using a […]. The (IC50 concentration) is calculated from this concentration-response curve.

In assay [2] the test system is hypertrophied bladder (detrussor) smooth muscle in conscious female rats. Briefly: Inhibition of Spontaneous Contractions In Vivo in the hypertrophied rat bladder model (cystometry, conscious rats). On the set-up: species or system Female Sprague-Dawley rats. As for the experimental part:
In addition, we tested the ability of compounds to inhibit the hyperactivity of hypertrophied bladder (detrussor) smooth muscle in conscious female rats with hypertrophied bladders and thereby alleviate urinary incontinence in rats according to the following protocol described by Malmgren et al., J. Urol. 142:1134, 1989:
Female Sprague-Dawley rats, ranging in weight from 190-210 g are used. Up to 25 animals are prepared each time. After developemnt of bladder hypertrophy 4-8 animals are used per test.
Compounds are dissolved in PEG-200 and administered by gastric gavage or intraveneously in a volume of 5 ml/kg. For primary screening all drugs are administered at the arbitrary dose of 10 mg/kg p.o. to groups of 4 rats.
The animals are anesthetized with halothane. Through a midline incision the bladder and urethra are exposed and a ligature of 4-0 silk is tied around the proximal urethra in the presence of a stainless steel rod (1 mm diameter) to produce a partial occlusion. The rod is then removed. The abdominal region is closed using surgical staples and each rat receives 150,000 units of bicillin C-R. The animals are allowed six weeks to develop sufficient bladder hypertrophy. After six weeks, the ligature is removed under halothane anesthesia and a catheter (PE 60) with a cuff is placed in the dome of the bladder and secured with a purse string suture. The catheter is tunneled under the skin and exteriorized through an opening in the back of the neck. The abdominal incision is sutured and the free end of the catheter sealed. In order to prevent infections the rats receive an injection of bicillin C-R (150000 units/rat). Two days later the animals are used in cystometrical evaluations, The animals are placed in the metabolic cages and the catheter is attached (using a "T" connector) to a Statham pressure transducer (Model P23Db) and to a Harvard infusion pump. A plastic beaker attached to a force displacement transducer (Grass FTO3) is placed under the rat's cage to collect and record urine volume. Animals are allowed 15-30 minutes to rest before the saline infusion (20 ml/hr for 20 minutes) is started for the first cystometry period. Two hours after the first cystometry period, the rats are dosed with the vehicle or the test compound and one hour later a second cystometry is performed.
The following urodynamic variables are recorded:
The mean value of each variable is calculated before and after compound administration. For each compound the changes in the variables measured are compared to the values obtained before treatment and expressed as percent inhibition. The data are also subjected to 2-way analysis of variance to determine significant (p<0.05) changes in the variable measured. The most characteristic finding in this rat model is spontaneous bladder contractions which develop during filling.

The mark [3] stands for this setting: 0.5 h, isolated rat bladder strips, 15 mM KCl, 30 minute challenge, read-out: IC50, inhibition of contractions in isolated rat bladder strips.
Setting [4] is: 0.5 h, isolated rat bladder strips.

Read-outs that look alike come from different tables or passages of the source.

Usually IC50 stands for the concentration at which inhibition is half-maximal. A word on the inhibition: it is how much of the control response was suppressed.

For `CCC(C)(C)Nc1c(NCc2ccc(Cl)cc2Cl)c(=O)c1=O` [Example 6, 3-(2,4-Dichlorobenzylamino)-4-(1,1-dimethylpropylamino)-cyclobut-3-ene-1,2-dione], the half-maximal inhibitory concentration (IC50) in assay [1] (setting [3]) worked out at 0.11 ± 0.002 µM; in assay [1] (Rattus norvegicus, prior lot of this compound, mp. 195-196° C., n = 4, read-out: IC50, prior lot), 0.21 ± 0.04 µM. Further, the “% Red (F): percent reduction in the total number of spontaneous contractions” value (“% Red (F): percent reduction” below) is listed as -40 ± 13% in assay [2] (1 mg/kg p.o., prior lot, mp. 195-196° C.); -58 ± 9% in assay [2] (3 mg/kg p.o., prior lot, mp. 195-196° C.); -68 ± 10% in assay [2] (10 mg/kg p.o., prior lot, mp. 195-196° C.).
Turning to `CC(C)(C)Nc1c(NCc2ccc(Cl)cc2Cl)c(=O)c1=O` [Example 11, 3-(t-Butylamino)-4-(2,4-dichlorobenzylamino) cyclobut-3-ene-1,2-dione], in assay [1] (setting [3]), the IC50 amounted to 1.3 ± 0.6 µM.
`CCCC(=O)N(Cc1c(C)cc(Cl)cc1Cl)c1c(NC(C)(C)CC)c(=O)c1=O` [Example 17, N-(2,4-Dichloro-6-methyl-benzyl)-N-[2-(1,1-dimethyl-2proplylamino)-3,4-dioxo-cyclobut-1-envl]-butyramide]: the activity at 30 µM in assay [1] (setting [4]) amounted to 245 ± 15%. The “% Red (F): percent reduction” value in assay [2] (10 mg/kg p.o.) was -87 ± 2%.
On to `CC(Nc1c(NCc2ccc(Cl)cc2Cl)c(=O)c1=O)C(C)(C)C` (stereo not drawn) [Example 2, 3-(2,4-Dichlorobenzylamino)-4-(1,2,2-trimethylproylamino)-cyclobut-3-ene-1,2-dione], for which the IC50 in assay [1] (setting [3]) came out at 2 ± 1 µM.
With `Cc1cc(Cl)cc(Cl)c1CNc1c(NC(C)C(C)(C)F)c(=O)c1=O` (stereo not drawn) [Example 20, 3-(2,4-dichloro-6-methyl-benzylamino)-4-(1,2-dimethyl-2-fluoro-propylamino)-cyclobut-3-ene-1,2-dione], the IC50 in assay [1] (setting [3]) worked out at 2.53 ± 0.19 µM.
For `CCC(C)(C)Nc1c(NCc2ccc(Cl)c(Cl)c2)c(=O)c1=O` [Example 25], the activity at 30 µM in assay [1] (setting [4]) was 57.9 ± 4.2%. The IC50 in assay [1] (setting [3]) came to 8.9 ± 4 µM.
Take `CC(C)(C)Nc1c(NCc2ccc(Cl)c(Cl)c2)c(=O)c1=O` [Example 24, 3-tert-Butylamino-4-(3,4-dichlorobenzylamino)-cyclobut-3-ene-1,2-dione]: the activity at 30 µM in assay [1] (setting [4]) stood at 30%. In assay [1] (setting [3]), the half-maximal inhibitory concentration (IC50) worked out at 1.48 ± 0.57 µM. Further, the inhibition at 30 µM in assay [1] (isolated rat bladder strips) came out at 32.5 ± 3.1%.
For `CCC(C)(C)Nc1c(N(Cc2c(C)cc(Cl)cc2Cl)C(C)=O)c(=O)c1=O` [Example 18, N-(2,4-Dichloro-6-methyl-benzyl)-N-[2-(1,1-dimethyl-propylamino)-3,4-dioxo-cyclobut-1-enyl]-acetamide], the inhibition at 30 µM in assay [1] (isolated rat bladder strips) was found to be 26 ± 13.8%.
As for `Cc1cc(Cl)cc(Cl)c1CNc1c(N[C@H](C)C(C)(C)C)c(=O)c1=O` [Example 4, (R)-3-(2,4-dichloro-6-methyl-benzylamino)-4-(1,2,2-trimethyl-propylamino)-cyclobut-3-ene-1,2-dione], the IC50 in assay [1] (setting [3]) amounted to 9.8 ± 5.1 µM.
Turning to `CCC(C)(C)Nc1c(NCc2c(C)cc(Cl)cc2Cl)c(=O)c1=O` [Example 9, 3-(2,4-Dichloro-6-methyl-benzylamino)-4-(1,1-dimethyl-propylamino)-cyclobut-3-ene-1 2-dione], the 50% inhibitory concentration (IC50) in assay [1] (setting [3]) was 0.2 ± 0.06 µM. For the same compound, the “% Red (F): percent reduction” value in assay [2] (1 mg/kg p.o.) was -63 ± 13%; in assay [2] (3 mg/kg p.o.), -82 ± 5%.
Regarding `Cc1cc(Cl)cc(Cl)c1CNc1c(NCC(F)(F)C(F)(F)F)c(=O)c1=O` [Example 16], the concentration for half-maximal inhibition (IC50) in assay [1] (setting [3]) amounted to 9.35 ± 0.46 µM. Moreover, in assay [1] (isolated rat bladder strips), the inhibition at 30 µM amounted to 36 ± 3.2%.
Take `CCC(CC)Nc1c(NCc2ccc(Cl)cc2Cl)c(=O)c1=O` [Example 15, 3-(2,4-dichloro-benzylamino)-4-(1-ethyl-propylamino)-cyclobut-3-ene-1,2-dione]: the IC50 in assay [1] (setting [3]) is 2 ± 0.8 µM.
Turning to `CC(C)(CO)Nc1c(NCc2ccc(Cl)cc2Cl)c(=O)c1=O` [Example 22, 3-(2,4-Dichlorobenzylamino)-4-(2-hvdroxy-1,1-dimethylethylamino)-cyclobut-3-ene-1,2-dione], the half-maximal inhibitory concentration (IC50) in assay [1] (setting [3]) was found to be 24 ± 9.3 µM.
Same read-out and setting: then `CCC(C)(C)Nc1c(N(Cc2ccc(Cl)cc2Cl)C(C)=O)c(=O)c1=O` [Example 7, N-(2,4-dichloro-benzyl)-N-[2-(1,1-dimethyl-propylamino)-3,4-dioxo-cyclobut-1-enyl]-acetamide], with 15.8 ± 0.05 µM.
Regarding `C[C@@H](Nc1c(NCc2ccc(Cl)cc2Cl)c(=O)c1=O)C(C)(C)C` [Example 23, (R)-3-(2,4-dichlorobenzylamino)-4-(1,2,2-trimethylpropylamino)-cyclobut-3-ene-1,2-dione], the half-maximal inhibitory concentration (IC50) in assay [1] (setting [3]) is 0.34 ± 0.22 µM.
Turning to `CCCC(=O)N(Cc1ccc(Cl)cc1Cl)c1c(NC(C)(C)CC)c(=O)c1=O` [Example 8, N-(2,4-dichloro-benzyl)-N-[2-(1,1-dimethyl-propylamino)-3,4-dioxo-cyclobut-1-enyl]-butyramide], in assay [1] (setting [4]), the activity at 30 µM stood at 82.8 ± 26%. In addition, the inhibition at 30 µM in assay [1] (isolated rat bladder strips) turned out to be 10.2%.
Turning to `CCC(C)(C)Nc1c(N(Cc2c(C)cc(Cl)cc2Cl)C(=O)OC(C)(C)C)c(=O)c1=O` [Example 26, (2,4-Dichloro-6-methyl-benzyl)-[2-(1,1-dimethyl-propylamino)-3,4-dioxo-cyelobut-1-enyl]-carbamic acid tert-butyl ester], in assay [1] (setting [3]), the IC50 turned out to be 4.5 ± 4.2 µM.
Consider `CCC(CC)Nc1c(NCc2ccc(Cl)c(Cl)c2)c(=O)c1=O` [Example 14, 3-(3,4-Dichloro-benzylamino)-4-(1-ethyl-propylamino)-cyclobut-3-ene-1,2-dione], for which the inhibition at 30 µM in assay [1] (isolated rat bladder strips) worked out at 22 ± 5.9%.
Take `CCC(=O)N(c1c(NCc2c(C)cc(Cl)cc2Cl)c(=O)c1=O)C(C)(C)C` [Example 19, N-(tert-butyl)-N-[2-(2,4-Dichloro-6-methyl-benzylamino)-3,4-dioxo-cylobut-1-enyl]-propionamide]: in assay [1] (setting [4]), the activity at 30 µM amounted to 92.5 ± 44.2%.
As for `Cc1cc(Cl)cc(Cl)c1CNc1c(NC(C)(C)C)c(=O)c1=O` [Example 12, 3-tert-butylamino-4-(2,4-dichloro-6-methyl-benzylamino)-cyclobut-3-ene-1,2-dione], the half-inhibitory concentration (IC50) in assay [1] (setting [3]) came out at 0.22 ± 0.08 µM. The “% Red (F): percent reduction” value in assay [2] (3 mg/kg p.o.) is reported as -53 ± 18%.

The values are drawn from patent publication US5763474A, “Substituted N-arylmethylamino derivatives of cyclobutene-3,4-diones” (American Home Products Corporation, priority 1997, dated 1998).
